Assay results as given in US4011313A, “Medicament preparations” (Syntex (U.S.A.) Inc., priority 1975, dated 1977).
Counter-ions that a name gives are not always drawn. Like-named read-outs stand apart in the source and are kept apart here. Blank lines part the entries; values can stand above or below the molecule they belong to.

Assays:
[1] = PGE2 activity after storage in polyethylene glycol comparison formulations; type: physicochemical
Description: By comparison, 1 mg. PGE2 and 1 ml. polyethylene glycol 400 assays 54% PGE2 activity after storage for two months at 45° C.; 0.2 mg. PGE2 in 2.7598 g. polyethylene glycol 4,000 assays 70% PGE2 activity after storage for 6 months at room temperature and 72% PGE2 activity after storage for 3 months at 45° C.; a suppository of 0.2 mg. PGE2 in 2.7298 g. base comprising 2% polyethylene glycol 4,000 and 98% polyethylene glycol 1,000 assays 62% PGE2 activity after storage for six months at room temperature; a formulation of PGE2 in polyethylene glycol 400 assays 73% PGE2 activity after 4 months at room temperature; and a formulation of PGE2 in polyethylene glycol 4000 assays 82% PGE2 activity after 5 months at room temperature.

[2] = General chemical stability of prostaglandins; type: physicochemical; settings: with dimethyl ether of polyethylene glycol 550, extended period above room temperature
Text: See, for example, Brummer J. Pharm. Pharmac. 23, 804 (1971), and Karim et al., European J. Pharmacol. 4, 416 (1968). It would, therefore, be desirable to have a prostaglandin preparation wherein the prostaglandin material is stabilized by the vehicle material.
The above and still further objects, features, and advantages of the present invention are achieved, in accordance therewith, by admixing a pharmaceutically active quantity of an active medicament material with a dialkylated mono- or poly-alkylene glycol optionally including an antioxidant for the glycol vehicle.

[3] = literature: Brummer 1971; Karim et al. 1968; cited from earlier work
[4] = PGE2 activity after storage at 80° C in polyethylene glycol-550-dimethyl ether; type: physicochemical; settings: 1 mg PGE2, 0.01% edetic acid, 0.01% BHA, 0.01% BHT per ml polyethylene glycol-550-dimethyl ether, nitrogen, 18 days
Description: The following formulations are prepared having 1 mg. PGE2 per ml. of polyethylene glycol-550-dimethyl ether, and the additional material(s) as set forth below.
A formulation is prepared having 1 mg. PGE2 , 0.01% edetic acid, 0.01% BHA and 0.01% BHT per ml. polyethylene glycol-550-dimethyl ether, and sealed in an ampule under nitrogen atmosphere.

[5] = PGE2 activity after storage at 60° C in glyme or triethylene glycol-dimethyl ether; type: physicochemical; settings: nitrogen
Description: A formulation is prepared having 1 mg. PGE2 per ml. 1,2-dimethoxyethane. After 12 days storage at 60° C. under a nitrogen atmosphere, the PGE2 assays 100% of its initial activity.
A formulation is prepared having 1 mg. PGE2 per ml. of triethylene glycol-dimethyl ether. After 5 days storage at 60° C. under a nitrogen atmosphere, the PGE2 assays 100% of its initial activity.

[6] = Decomposition of aspirin vs. time at 80° C in vehicle, with extrapolated shelf-life; type: physicochemical; settings: for shelf-life at 25° C: extrapolated from 80° C
Description: A formulation is prepared having 0.5 g. aspirin and 0.05% BHA per 1.0 g. polyethylene glycol-750-dimethyl ether, and stored at 80° C. Decomposition of the aspirin is measured vs. time. The time for 10% decomposition is 27 hours. This reflects approximately a 30 month shelf-life at 25° C. This can be compared to a published report[Jun et al., J. Pharm. Sec.
The time for 10% decomposition (t90) is 24 hours. This reflects approximately a 30 month shelf-life at 25° C. Thus, this Example describes the preparation of a liquid aspirin formulation which is stable for long periods of time at or about room temperature.
Sciences, 53, 815-818 (July, 1964).

[7] = in several polyethylene glycols, cited from earlier work
[8] = Chloramphenicol activity after storage at 80° C, with extrapolated shelf-life; settings: for chloramphenicol percent of initial activity: 80° C
[9] = Nystatin activity after storage at 80° C; type: physicochemical; settings: for nystatin percent of initial activity: 0.5 mg/ml in polyethylene glycol-350-dimethyl ether, 0.05% BHA, under air
Text: Thus, the polyethylene glycol-350-dimethyl ether has a significant stabilizing effect on nystatin when compared to polyethylene glycol 400.

lipase = test: In vitro lipase inhibition; type: biochemical
[10] = Oleic acid diethanolamide activity after storage at 80° C, with extrapolated shelf time; type: physicochemical
[11] = Storage stability of tetracyclines in cream-like and comparison formulations; settings: for oxytetracycline hydrochloride percent of initial activity: Example XXXIX cream; for tetracycline activity remaining: after two weeks, 20160 min; for tetracycline activity remaining / stability of comparison formulation: room temperature
[12] = Palmitic acid diethanolamide stability at 80° C; type: physicochemical; settings: under air, 14 days
Text: The formulation remains undecomposed after 14 days. The same result is attained with a formulation which additionally contains 0.05% BHA.

[13] = In vitro human skin penetration of labeled (H^3) tetracycline hydrochloride; settings: cream-like preparation vs 0.5% in 75% propylene glycol and 0.05% in pH 6.6 buffer (both saturated solutions)
[14] = polyethylene glycol 400 in place of dialkylated vehicle, 2 days
[15] = 0.05% tetracycline hydrochloride in pH 6.6 buffer
[16] = 0.5% tetracycline hydrochloride in 75% propylene glycol

PGE2 activity after storage ([1]; 0.2 mg PGE2 in 2.7598 g polyethylene glycol 4,000, 3 months, 45° C, 129600 min): 72%
PGE2 activity after storage ([1]; 0.2 mg PGE2 in 2.7598 g polyethylene glycol 4,000, 6 months, room temperature, 259200 min): 70%
PGE2 activity after storage ([1]; 1 mg PGE2 and 1 ml polyethylene glycol 400, two months, 45° C, 86400 min): 54%
PGE2 activity after storage ([1]; in polyethylene glycol 400, 4 months, room temperature, 172800 min): 73%
PGE2 activity after storage ([1]; in polyethylene glycol 4000, 5 months, room temperature, 216000 min): 82%
PGE2 activity after storage ([1]; suppository, 0.2 mg PGE2 in 2.7298 g base (2% polyethylene glycol 4,000, 98% polyethylene glycol 1,000), six months, room temperature, 259200 min): 62%
chemical stability after storage [2]: high degree of chemical stability
PGE2 percent of initial activity [4]: 100%
PGE2 percent of initial activity ([5]; 1 mg/ml in 1,2-dimethoxyethane, 12 days): 100%
PGE2 percent of initial activity ([5]; 1 mg/ml in triethylene glycol-dimethyl ether, 5 days): 100%
Compound: CCCCC[C@H](O)/C=C/[C@H]1[C@H](O)CC(=O)[C@@H]1C/C=C\CCCC(=O)O [PGE2, 11α,15α-dihydroxy-9-keto-5,13-prostadienoic acid]
chemical stability [3]: relatively unstable

Compound: CC(=O)Oc1ccccc1C(=O)O [aspirin, acetylsalicylic acid]
time for 10% decomposition (t90) ([6]; 100 mg aspirin per ml polyethylene glycol-350-dimethyl ether, under air, 80° C): 24 h
time for 10% decomposition ([6]; 0.5 g aspirin and 0.05% BHA per 1.0 g polyethylene glycol-750-dimethyl ether, 80° C): 27 h
shelf-life at 25° C ([6]; polyethylene glycol-350-dimethyl ether, under air): ~30 month
shelf-life at 25° C ([6]; polyethylene glycol-750-dimethyl ether with 0.05% BHA): ~30 month
time for 10% decomposition ([7]; 80° C, Jun et al. 1972): 2 h
shelf-life at 25° C ([7]; from published report Jun et al. 1972): 3.5 months

Compound: O=C(N[C@H](CO)[C@H](O)c1ccc([N+](=O)[O-])cc1)C(Cl)Cl [chloramphenicol]
chloramphenicol percent of initial activity ([8]; 0.5 mg/ml in polyethylene glycol-350-dimethyl ether, 0.05% BHA, under air, 2 days): 95%
chloramphenicol percent of initial activity ([8]; 0.5 mg/ml in polyethylene glycol-350-dimethyl ether, 0.05% BHA, under air, 5 days): 66%
chloramphenicol percent of initial activity [8, 14]: 50%
chloramphenicol percent of initial activity ([8]; polyethylene glycol 400 in place of dialkylated vehicle, 5 days): less than 20%
shelf-life at room temperature ([8]; polyethylene glycol-350-dimethyl ether, 0.05% BHA, extrapolated from 80° C): at least 1 year

Compound: C[C@@H]1[C@H](O)[C@@H](C)/C=C/C=C/CC/C=C/C=C/C=C/C=C/C(O[C@H]2O[C@H](C)[C@@H](O)[C@H](N)[C@@H]2O)CC2O[C@](O)(CC(O)C(O)CCC(O)CC(O)CC(O)CC(=O)O[C@H]1C)CC(O)C2C(=O)O (stereo partly drawn) [nystatin]
nystatin percent of initial activity ([9]; 2 days): 56%
nystatin percent of initial activity ([9]; 5 days): less than 40%
decomposition (loss of activity) [9, 14]: total decomposition

Compound: CCCCCCCC/C=C\CCCCCCCC(=O)N(CCO)CCO [oleic acid diethanolamide]
lipase inhibition (lipase): inhibits lipase
oleamide percent of initial activity ([10]; 2 mg/ml in 1,2-dimethoxyethane with 0.025% BHT and 0.025% BHA, 5 weeks, 80° C, 50400 min): 96%
shelf time at 25° C ([10]; approximately, 1,2-dimethoxyethane with BHT and BHA, extrapolated from 80° C): 3-4 years

Compound: CN(C)C1C(=O)C(C(N)=O)=C(O)C2(O)C(=O)C3=C(O)c4c(O)cccc4C(C)(O)C3C(O)C12 (stereo not drawn) [oxytetracycline hydrochloride]
oxytetracycline hydrochloride percent of initial activity ([11]; 2 months, 45° C, 86400 min): 92%
oxytetracycline hydrochloride percent of initial activity ([11]; 3 months, 37° C, 129600 min): 92%
oxytetracycline hydrochloride percent of initial activity ([11]; 4 months, 45° C, 172800 min): 75%

decomposition after storage ([12]; 5 mg/ml in polyethylene glycol-350-dimethyl ether with 0.05% BHA): undecomposed
decomposition after storage ([12]; 5 mg/ml in polyethylene glycol-350-dimethyl ether): undecomposed
Compound: CCCCCCCCCCCCCCCC(=O)N(CCO)CCO [palmitic acid diethanolamide]

Compound: CN(C)C1C(=O)C(C(N)=O)=C(O)C2(O)C(=O)C3=C(O)c4c(O)cccc4C(C)(O)C3CC12 (stereo not drawn) [tetracycline hydrochloride]
skin penetration [13]: equivalent skin penetration
tetracycline activity remaining [11, 15]: less than 50%
stability of comparison formulation [11, 15]: highly unstable
tetracycline activity remaining [11, 16]: less than 50%
stability of comparison formulation [11, 16]: highly unstable
tetracycline hydrochloride percent of initial activity ([11]; Example XXXVIII cream: 1.0% drug, 79.0% polyethylene glycol-350-dimethyl ether, 20.0% polyethylene glycol-6000-dimethyl ether, 0.05% BHA, 4 months, 45° C, 175200 min): 98%
